Laboratory results as given in ChEMBL document CHEMBL4190400, “Identification of Potent Ebola Virus Entry Inhibitors with Suitable Properties for in Vivo Studies” (J Med Chem, 2018).
≈ marks a conversion by molar mass, not a printed value.

Columns and labels:
[1] = Half life in mouse liver microsomes at 1 uM after 60 mins in presence of NADPH by LC-MS/MS analysis; assay type: ADME, microsome
[2] = Half life in human liver microsomes at 1 uM after 60 mins in presence of NADPH by LC-MS/MS analysis; assay type: ADME, microsome
Ebolavirus [3] = test: Antiviral activity against VSV pseudotyped Ebolavirus expressing M-GFP infected in African green monkey Vero E6 cells assessed as inhibition of viral infection pre-incubated for 2 hrs before infection and measured after 8 to 12 hrs by fluorescence microscopic method; assay type: functional, Vero C1008
Ebolavirus [4] = test: (§1) Antiviral activity against recombinant VSV pseudotyped Ebolavirus expressing M-GFP infected in African green monkey Vero E6 cells assessed as inhibition of viral infection pre-incubated for 2 hrs before infection and measured after 8 to 12 hrs in presence of 50% NHS by fluorescence microscopic method; assay type: functional, Vero C1008
Ebolavirus [5] = test: Antiviral activity against Ebolavirus isolate Makona infected in human HeLa cells assessed as inhibition of viral infection pretreated for 2 hrs before viral infection and measured after 48 hrs by EboV GP immunostaining based method; assay type: functional, cell-based; conditions: Orthoebolavirus
physchem = conditions: phosphate buffered saline, pH 7.4
Ebolavirus [6] = test: Antiviral activity against Ebola virus - Mayinga, Zaire, 1976 infected in human HeLa cells assessed as inhibition of viral infection pretreated for 2 hrs before viral infection and measured after 48 hrs by EboV GP immunostaining based method; assay type: functional, cell-based; conditions: Orthoebolavirus
Ebolavirus [7] = test: Antiviral activity against Ebolavirus isolate Kikwit infected in human HeLa cells assessed as inhibition of viral infection pretreated for 2 hrs before viral infection and measured after 48 hrs by EboV GP immunostaining based method; assay type: functional, cell-based; conditions: Orthoebolavirus
[8] = Stability of the compound in mouse plasma at 10 uM assessed as compound remaining after 4 hrs by LC-MS/MS analysis; assay type: ADME, cell-free; conditions: read-out: Stability
in vitro = conditions: mouse, plasma
[9] = Half life in mouse liver microsomes at 1 uM after 60 mins in presence of NADPH and ritonavir by LC-MS/MS analysis; assay type: ADME, microsome; conditions: with ritonavir (concentration not stated)
[10] = Concentration in mouse plasma at 25 mg/kg, po administered via gavage after 12 hrs; assay type: ADME, organism-based
[11] = Clearance in mouse at 25 mg/kg, po administered via gavage; assay type: ADME, organism-based; conditions: in vivo
[12] = Cmax in mouse at 25 mg/kg, po administered via gavage cotreated with 20 mg/kg ritonavir; assay type: ADME, organism-based; set-up: dose 25 mg/kg, route oral; conditions: in vivo
[13] = Concentration in mouse plasma at 25 mg/kg, po administered via gavage cotreated with 20 mg/kg ritonavir; assay type: ADME, organism-based; conditions: in vivo
[14] = AUClast in mouse at 25 mg/kg, po administered via gavage cotreated with 20 mg/kg ritonavir; assay type: ADME, organism-based; set-up: dose 25 mg/kg, route oral, time 0 - last; conditions: in vivo
[15] = Clearance in mouse at 25 mg/kg, po administered via gavage cotreated with 20 mg/kg ritonavir; assay type: ADME, organism-based; conditions: in vivo
in vivo = conditions: mouse, po, 25 mg/kg
[16] = Tmax in mouse at 50 mg/kg, po administered via gavage cotreated with 50 mg/kg ritonavir; assay type: ADME, organism-based; conditions: in vivo
[17] = Cmax in mouse at 50 mg/kg, po administered via gavage cotreated with 50 mg/kg ritonavir; assay type: ADME, organism-based; set-up: dose 50 mg/kg, route oral; conditions: in vivo
[18] = Concentration in mouse plasma at 50 mg/kg, po administered via gavage cotreated with 50 mg/kg ritonavir; assay type: ADME, organism-based; conditions: in vivo
[19] = AUClast in mouse at 50 mg/kg, po administered via gavage cotreated with 50 mg/kg ritonavir; assay type: ADME, organism-based; set-up: dose 50 mg/kg, route oral, time 0 - last; conditions: in vivo
[20] = Half life in mouse at 50 mg/kg, po administered via gavage cotreated with 50 mg/kg ritonavir; assay type: ADME, organism-based; conditions: in vivo
[21] = Clearance in mouse at 50 mg/kg, po administered via gavage cotreated with 50 mg/kg ritonavir; assay type: ADME, organism-based; conditions: in vivo
Ebolavirus [22] = test: as §1, with “activity against VSV pseudotyped” for “activity against recombinant VSV pseudotyped”, “presence of 10% FBS and 50% NHS” for “presence of 50% NHS”; assay type: functional; conditions: Orthoebolavirus, Vero C1008

Structure (SMILES)	half-life at 1 µM [1] [min]	IC50 (Ebolavirus [3]; Orthoebolavirus, Vero C1008) [µM]	IC50 (Ebolavirus [4]; Orthoebolavirus, Vero C1008) [µM]	EC50 (Ebolavirus [5]) [µM]	solubility kinetic (physchem) [µM]	remaining at 4 h, 10 µM [8] [%]	fraction unbound at 6 h (in vitro)	half-life at 1 µM [9] [h]	other results
COC(=O)c1ccc(COc2ccccc2CN2CCN(C(=O)CNC(=O)CC34CC5CC(CC(C5)C3)C4)CC2)cc1	1	0.013	0.064	0.16	5.3 (≈ 3.04 µg/mL)				half-life at 1 µM [2]: 0.02 h
O=C(CC12CC3(F)CC(F)(CC(F)(C3)C1)C2)NCC(=O)N1CCN(Cc2ccccc2OCc2ccc(Br)cc2)CC1	1	0.2							
CS(=O)(=O)c1ccc(CNc2ccc(Cl)cc2CN2CCN(C(=O)CNC(=O)CC3CCC(F)(F)CC3)CC2)cc1			0.028	0.052					EC50 (Ebolavirus [6]): 0.012 µM; EC50 (Ebolavirus [7]): 0.033 µM
O=C(CC12CC3CC(CC(C3)C1)C2)NCC(=O)N1CCN(Cc2ccccc2OCc2ccc(-c3ncco3)cc2)CC1	1	0.27			5 (≈ 2.91 µg/mL)	37	0.003		
Nc1ccc(Cl)cc1CN1CCN(C(=O)CNC(=O)CC2CCC(F)(F)CC2)CC1		0.34			> 100	94	0.131		
[2H]C([2H])(c1cc(Cl)ccc1N)N1CCN(C(=O)CNC(=O)CC2CCC(F)(F)CC2)CC1		0.347	1.2			86		> 2	concentration at 12 h [10]: 0.2 µM; CL/F [11]: 2.94 L/h/kg; Cmax [12]: 12 µM; concentration [13]: 1.7 µM; AUC(0-t) [14]: 76.8 µM·h; CL/F [15]: 0.738 L/h/kg; half-life (in vivo): 2.3 h
CS(=O)(=O)c1ccc(COc2ccc(Cl)cc2CN2CCN(C(=O)CNC(=O)CC3CCC(F)(F)CC3)CC2)cc1			0.038			30		> 2	
CS(=O)(=O)c1ccc(CNc2ccc(Cl)cc2CN2CCN(C(=O)CNC(=O)C3CC34CCC(F)(F)CC4)CC2)cc1 (racemic)			0.04	0.017					EC50 (Ebolavirus [6]): 0.009 µM; EC50 (Ebolavirus [7]): 0.035 µM
CS(=O)(=O)c1ccc(COc2ccc(Cl)cc2CN2CCN(C(=O)CNC(=O)C3CC34CCC(F)(F)CC4)CC2)cc1 (racemic)			0.035	0.14					EC50 (Ebolavirus [6]): 0.21 µM; EC50 (Ebolavirus [7]): 0.42 µM
[2H]C([2H])(c1cc(Cl)ccc1N)N1CCN(C(=O)CNC(=O)C2CC23CCC(F)(F)CC3)CC1 (single isomer, unassigned; (-))	3		0.163		78 (≈ 35.6 µg/mL)	88	0.121	1.52	half-life at 1 µM [2]: 0.267 h; Tmax [16]: 1.7 h; Cmax [17]: 19.5 µM; concentration [18]: 2 µM; AUC(0-t) [19]: 121 µM·h; half-life [20]: 3.2 h; CL/F [21]: 0.93 L/h/kg; IC50 (Ebolavirus [3]; vero c1008): 0.051 µM
[2H]C([2H])(c1cc(Cl)ccc1NCc1ccc(S(C)(=O)=O)cc1)N1CCN(C(=O)CNC(=O)C2CC23CCC(F)(F)CC3)CC1 (single isomer, unassigned; (-))	2		0.021		4 (≈ 2.5 µg/mL)	72	0.002	1.45	half-life at 1 µM [2]: 0.0167 h; Tmax [16]: 7.3 h; Cmax [17]: 7.4 µM; concentration [18]: 5.7 µM; AUC(0-t) [19]: 108 µM·h; half-life [20]: 1.7 h; CL/F [21]: 0.75 L/h/kg; IC50 (Ebolavirus [22]): 0.109 µM
CS(=O)(=O)c1ccc(COc2ccc(Cl)cc2CN2CCN(C(=O)CNC(=O)C3CC34CCC(F)(F)CC4)CC2)cc1 (stereo in doubt; 3-22)					10 (≈ 6.24 µg/mL)	69	0.024	> 2	Tmax [16]: 4 h; Cmax [17]: 10.4 µM; concentration [18]: 4.7 µM; AUC(0-t) [19]: 116 µM·h; half-life [20]: 3.2 h; CL/F [21]: 0.714 L/h/kg; IC50 (Ebolavirus [22]): 0.093 µM; IC50 (Ebolavirus [4]; vero c1008): 0.019 µM
